Values of other authors as cited in patent US4764376A, “Method of inhibiting aromatase” (Eli Lilly and Company, priority 1984, dated 1988).

Tested on: breast cancer
Conditions: known aromatase inhibitors; result in words

SMILES | beneficial effect in treatment of breast cancer
CCC1(c2ccc(N)cc2)CCC(=O)NC1=O (centres unmarked) [aminoglutethimide] | beneficial effect
C[C@]12C=CC(=O)C=C1CC[C@@H]1[C@@H]2CC[C@]2(C)OC(=O)CC[C@@H]12 [testolactone] | beneficial effect
